Drawing on the NIST ThermoML archive (doi:10.1016/j.jct.2018.02.005), this text covers refractive index for four compounds.

Numbers after ± are expanded uncertainties.

This series can be described thus: refractive index (Na D-line) (dimensionless). The conditions noted are these: 298.15 K; 100 kPa; Liquid; Standard Abbe refractometry.
Consider `O` [water], for which the refractive index was determined as 1.33251 ± 0.00031. For the compound `CC(C)O` [propan-2-ol], the refractive index was 1.37503 ± 0.00033. As for `CO` [methanol], the refractive index was determined as 1.32655 ± 0.00031.

For `CCO` [ethanol], the refractive index stood at 1.35947 ± 0.00033.

The term refractive index denotes a measure of how strongly the sample bends light.
